Assay results as given in ChEMBL document CHEMBL5291721, “A preclinical secondary pharmacology resource illuminates target-adverse drug reaction associations of marketed drugs” (Nat Commun, 2023).

How the values were obtained:
Adenosine receptor A3 = molecular target: T1, Adenosine receptor A3 (Homo sapiens, UniProt P0DMS8)
T1 sequence (P0DMS8 whole entry): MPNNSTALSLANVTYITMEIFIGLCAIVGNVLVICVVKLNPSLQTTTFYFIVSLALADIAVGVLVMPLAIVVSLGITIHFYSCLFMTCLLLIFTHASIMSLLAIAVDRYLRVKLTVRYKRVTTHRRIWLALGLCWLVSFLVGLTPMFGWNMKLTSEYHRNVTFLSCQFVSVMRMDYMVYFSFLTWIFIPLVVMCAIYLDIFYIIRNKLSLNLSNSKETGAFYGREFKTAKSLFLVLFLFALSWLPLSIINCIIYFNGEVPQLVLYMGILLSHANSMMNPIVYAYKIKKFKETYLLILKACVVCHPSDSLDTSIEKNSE

[1] = molecular target: T2, Alpha-1A adrenergic receptor (Homo sapiens, UniProt P35348); assay type: functional, cell-based
T2 sequence (P35348 whole entry): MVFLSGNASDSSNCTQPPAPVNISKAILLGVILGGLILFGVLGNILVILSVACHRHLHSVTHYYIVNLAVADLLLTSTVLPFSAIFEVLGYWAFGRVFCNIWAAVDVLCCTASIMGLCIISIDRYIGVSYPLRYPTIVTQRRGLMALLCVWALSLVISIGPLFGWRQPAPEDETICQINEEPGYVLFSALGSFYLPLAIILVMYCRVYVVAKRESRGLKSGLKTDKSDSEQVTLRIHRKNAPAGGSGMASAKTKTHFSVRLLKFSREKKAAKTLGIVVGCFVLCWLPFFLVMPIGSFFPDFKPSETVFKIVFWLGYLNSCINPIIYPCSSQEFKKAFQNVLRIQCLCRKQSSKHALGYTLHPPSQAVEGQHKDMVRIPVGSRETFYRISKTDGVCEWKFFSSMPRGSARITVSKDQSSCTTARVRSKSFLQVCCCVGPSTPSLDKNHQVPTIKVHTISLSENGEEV

[2] = molecular target: Prostaglandin G/H synthase 1 (Homo sapiens, UniProt P23219); assay type: functional
Chain of Prostaglandin G/H synthase 1 (P23219 whole entry): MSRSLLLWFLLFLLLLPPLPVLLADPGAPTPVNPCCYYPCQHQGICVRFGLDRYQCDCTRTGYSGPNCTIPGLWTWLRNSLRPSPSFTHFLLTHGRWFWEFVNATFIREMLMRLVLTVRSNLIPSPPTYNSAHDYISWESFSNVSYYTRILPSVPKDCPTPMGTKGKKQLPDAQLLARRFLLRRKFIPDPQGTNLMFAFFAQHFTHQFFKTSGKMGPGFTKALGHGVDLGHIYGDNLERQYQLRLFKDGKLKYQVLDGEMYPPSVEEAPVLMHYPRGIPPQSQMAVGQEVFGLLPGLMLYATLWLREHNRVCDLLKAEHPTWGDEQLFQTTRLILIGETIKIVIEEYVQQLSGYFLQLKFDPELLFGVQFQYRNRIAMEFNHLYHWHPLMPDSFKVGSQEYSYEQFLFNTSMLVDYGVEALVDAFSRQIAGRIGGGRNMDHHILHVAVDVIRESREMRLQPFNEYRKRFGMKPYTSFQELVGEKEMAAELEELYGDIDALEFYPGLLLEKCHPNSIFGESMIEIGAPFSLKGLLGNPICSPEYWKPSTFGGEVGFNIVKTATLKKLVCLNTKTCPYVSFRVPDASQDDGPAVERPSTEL

Thromboxane A2 receptor = molecular target: T3, Thromboxane A2 receptor (Homo sapiens, UniProt P21731); assay type: functional, cell-based
T3 sequence (P21731 whole entry): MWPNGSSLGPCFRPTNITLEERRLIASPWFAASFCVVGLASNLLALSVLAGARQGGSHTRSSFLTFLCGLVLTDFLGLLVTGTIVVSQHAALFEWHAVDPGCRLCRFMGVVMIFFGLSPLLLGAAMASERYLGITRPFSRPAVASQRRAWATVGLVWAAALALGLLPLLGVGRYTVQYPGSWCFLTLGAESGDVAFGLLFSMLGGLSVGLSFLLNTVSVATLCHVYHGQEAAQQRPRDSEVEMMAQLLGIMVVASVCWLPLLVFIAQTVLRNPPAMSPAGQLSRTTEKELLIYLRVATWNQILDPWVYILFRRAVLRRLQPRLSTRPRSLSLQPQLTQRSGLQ

Progesterone receptor = molecular target: T4, Progesterone receptor (Homo sapiens, UniProt P06401)
T4 sequence (P06401 whole entry): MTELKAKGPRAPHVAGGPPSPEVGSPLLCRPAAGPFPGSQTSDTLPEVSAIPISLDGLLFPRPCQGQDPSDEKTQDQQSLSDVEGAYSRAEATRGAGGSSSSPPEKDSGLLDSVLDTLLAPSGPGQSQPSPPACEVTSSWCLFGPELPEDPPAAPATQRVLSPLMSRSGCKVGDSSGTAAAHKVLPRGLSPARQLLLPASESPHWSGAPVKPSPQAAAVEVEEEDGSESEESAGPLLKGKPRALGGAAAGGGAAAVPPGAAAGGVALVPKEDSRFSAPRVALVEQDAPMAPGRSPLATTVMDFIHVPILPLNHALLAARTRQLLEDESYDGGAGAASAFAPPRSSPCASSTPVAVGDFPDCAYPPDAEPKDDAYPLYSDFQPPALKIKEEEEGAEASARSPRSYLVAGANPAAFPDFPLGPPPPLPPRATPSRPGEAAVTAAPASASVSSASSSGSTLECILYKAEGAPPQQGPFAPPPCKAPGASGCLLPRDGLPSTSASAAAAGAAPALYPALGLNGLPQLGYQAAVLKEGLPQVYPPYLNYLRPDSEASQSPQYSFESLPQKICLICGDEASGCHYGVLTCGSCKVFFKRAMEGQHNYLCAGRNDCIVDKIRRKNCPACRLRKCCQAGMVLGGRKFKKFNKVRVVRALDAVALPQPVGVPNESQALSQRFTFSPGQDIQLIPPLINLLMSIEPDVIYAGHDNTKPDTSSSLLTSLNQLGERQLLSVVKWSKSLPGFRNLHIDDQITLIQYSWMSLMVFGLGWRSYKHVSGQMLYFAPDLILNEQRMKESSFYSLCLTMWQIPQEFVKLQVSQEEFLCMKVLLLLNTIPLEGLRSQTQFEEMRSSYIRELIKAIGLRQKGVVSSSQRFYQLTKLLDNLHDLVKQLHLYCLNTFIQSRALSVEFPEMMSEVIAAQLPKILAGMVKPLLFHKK

[3] = molecular target: cGMP-inhibited 3',5'-cyclic phosphodiesterase 3A (Homo sapiens, UniProt Q14432); assay type: functional
Chain of cGMP-inhibited 3',5'-cyclic phosphodiesterase 3A (Q14432 whole entry): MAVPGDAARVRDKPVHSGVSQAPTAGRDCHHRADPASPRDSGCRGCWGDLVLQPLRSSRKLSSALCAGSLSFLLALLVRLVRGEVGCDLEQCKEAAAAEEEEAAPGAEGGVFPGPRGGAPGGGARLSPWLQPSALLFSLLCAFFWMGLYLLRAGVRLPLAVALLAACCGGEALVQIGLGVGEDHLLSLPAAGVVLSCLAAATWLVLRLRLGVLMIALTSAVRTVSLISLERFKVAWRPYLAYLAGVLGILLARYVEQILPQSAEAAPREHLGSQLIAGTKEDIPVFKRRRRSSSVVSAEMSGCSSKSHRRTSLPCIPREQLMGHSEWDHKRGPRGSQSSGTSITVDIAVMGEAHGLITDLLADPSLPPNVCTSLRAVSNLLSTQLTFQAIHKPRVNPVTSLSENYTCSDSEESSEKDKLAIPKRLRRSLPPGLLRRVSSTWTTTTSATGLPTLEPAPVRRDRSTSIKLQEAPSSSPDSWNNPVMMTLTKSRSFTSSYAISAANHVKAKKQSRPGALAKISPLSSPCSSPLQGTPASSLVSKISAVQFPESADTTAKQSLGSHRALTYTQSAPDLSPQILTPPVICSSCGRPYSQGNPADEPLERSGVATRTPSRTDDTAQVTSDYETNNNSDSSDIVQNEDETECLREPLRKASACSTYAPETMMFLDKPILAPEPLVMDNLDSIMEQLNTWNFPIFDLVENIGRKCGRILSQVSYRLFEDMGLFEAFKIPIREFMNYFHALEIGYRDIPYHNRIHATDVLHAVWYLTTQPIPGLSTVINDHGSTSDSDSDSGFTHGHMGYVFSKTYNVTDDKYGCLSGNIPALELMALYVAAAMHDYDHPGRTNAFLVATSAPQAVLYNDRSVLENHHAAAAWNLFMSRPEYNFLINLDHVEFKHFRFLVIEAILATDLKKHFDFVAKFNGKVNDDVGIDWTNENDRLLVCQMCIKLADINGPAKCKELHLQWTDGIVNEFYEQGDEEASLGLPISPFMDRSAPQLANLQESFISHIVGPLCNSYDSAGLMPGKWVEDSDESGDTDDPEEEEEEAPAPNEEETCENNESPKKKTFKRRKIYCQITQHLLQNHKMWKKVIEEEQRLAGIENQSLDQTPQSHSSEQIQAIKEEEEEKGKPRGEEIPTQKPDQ

[4] = molecular target: T5, 5-hydroxytryptamine receptor 1A (Homo sapiens, UniProt P08908)
T5 sequence (P08908 whole entry): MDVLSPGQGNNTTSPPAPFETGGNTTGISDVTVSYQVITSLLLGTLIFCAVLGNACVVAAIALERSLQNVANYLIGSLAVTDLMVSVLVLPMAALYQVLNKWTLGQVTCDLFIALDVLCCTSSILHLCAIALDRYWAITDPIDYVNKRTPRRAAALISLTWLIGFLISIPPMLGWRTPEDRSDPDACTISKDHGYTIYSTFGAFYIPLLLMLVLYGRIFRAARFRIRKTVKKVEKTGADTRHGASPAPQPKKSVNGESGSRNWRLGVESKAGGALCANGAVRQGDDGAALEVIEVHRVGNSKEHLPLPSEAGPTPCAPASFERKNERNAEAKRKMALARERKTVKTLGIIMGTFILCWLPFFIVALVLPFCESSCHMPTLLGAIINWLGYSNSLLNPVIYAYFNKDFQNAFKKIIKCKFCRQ

[5] = molecular target: Sodium-dependent serotonin transporter (Homo sapiens, UniProt P31645)
Chain of Sodium-dependent serotonin transporter (P31645 whole entry): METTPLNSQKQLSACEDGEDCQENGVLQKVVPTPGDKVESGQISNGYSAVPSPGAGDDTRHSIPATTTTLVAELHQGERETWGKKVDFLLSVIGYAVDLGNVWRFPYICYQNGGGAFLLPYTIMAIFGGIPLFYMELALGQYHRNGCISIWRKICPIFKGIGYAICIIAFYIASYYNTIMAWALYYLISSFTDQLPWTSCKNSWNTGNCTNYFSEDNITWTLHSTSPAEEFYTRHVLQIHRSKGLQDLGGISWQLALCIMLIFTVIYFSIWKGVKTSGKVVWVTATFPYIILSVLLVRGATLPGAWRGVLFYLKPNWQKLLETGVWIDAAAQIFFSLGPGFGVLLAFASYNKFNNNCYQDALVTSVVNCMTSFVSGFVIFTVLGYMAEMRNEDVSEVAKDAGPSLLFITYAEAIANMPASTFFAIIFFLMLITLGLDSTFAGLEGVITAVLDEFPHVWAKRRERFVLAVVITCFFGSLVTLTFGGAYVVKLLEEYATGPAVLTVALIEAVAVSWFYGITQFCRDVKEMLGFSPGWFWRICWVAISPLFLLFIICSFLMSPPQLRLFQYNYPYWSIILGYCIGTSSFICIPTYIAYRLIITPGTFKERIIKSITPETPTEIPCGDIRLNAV

Acetylcholinesterase = Acetylcholinesterase (Homo sapiens, UniProt P22303); assay type: functional
Chain of Acetylcholinesterase (P22303 whole entry): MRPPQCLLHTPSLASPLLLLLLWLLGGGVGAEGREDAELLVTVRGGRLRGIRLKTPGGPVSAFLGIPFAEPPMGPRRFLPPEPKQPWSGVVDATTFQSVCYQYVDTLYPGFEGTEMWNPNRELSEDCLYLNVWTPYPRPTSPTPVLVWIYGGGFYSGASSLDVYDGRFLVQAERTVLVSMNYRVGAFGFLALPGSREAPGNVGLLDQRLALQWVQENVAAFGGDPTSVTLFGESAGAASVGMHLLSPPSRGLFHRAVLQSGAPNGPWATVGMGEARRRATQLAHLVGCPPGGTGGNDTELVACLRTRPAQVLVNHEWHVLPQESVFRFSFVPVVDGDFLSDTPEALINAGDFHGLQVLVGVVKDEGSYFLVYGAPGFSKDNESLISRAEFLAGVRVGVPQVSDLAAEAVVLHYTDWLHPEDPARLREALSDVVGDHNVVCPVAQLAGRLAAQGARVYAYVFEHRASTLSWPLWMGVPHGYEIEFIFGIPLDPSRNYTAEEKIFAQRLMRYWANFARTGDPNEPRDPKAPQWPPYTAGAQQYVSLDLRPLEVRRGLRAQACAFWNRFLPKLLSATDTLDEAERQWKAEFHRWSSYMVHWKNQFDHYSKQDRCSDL
Note: assay procedure not described here.

| SMILES | AC50 (Adenosine receptor A3) | AC50 [1] | AC50 [2] | AC50 (Thromboxane A2 receptor) | AC50 (Progesterone receptor) | AC50 [3] | AC50 [4] | AC50 [5] | AC50 (Acetylcholinesterase) |
| --- | --- | --- | --- | --- | --- | --- | --- | --- | --- |
| Nc1nc(N)nc(Nc2ccc([As]3SCC(CO)S3)cc2)n1 (configuration not stated) [MELARSOPROL] | 1.92 µM | > 30 µM | > 30 µM | > 30 µM | > 30 µM | > 30 µM | > 30 µM | > 30 µM | > 30 µM |
| CC[N+](C)(CC)CCOC(=O)C1c2ccccc2Oc2ccccc21 [METHANTHELINE] | > 30 µM | > 30 µM | > 30 µM | > 30 µM | > 30 µM | > 30 µM | > 30 µM | > 30 µM | > 30 µM |
| CO[C@H]1[C@@H](O)C[C@H](O[C@H]2[C@@H](O)C[C@H](O[C@H]3[C@@H](O)C[C@H](O[C@H]4CC[C@@]5(C)[C@H](CC[C@@H]6[C@@H]5C[C@@H](O)[C@]5(C)[C@@H](C7=CC(=O)OC7)CC[C@]65O)C4)O[C@@H]3C)O[C@@H]2C)O[C@@H]1C [METILDIGOXIN] | > 30 µM | > 30 µM | > 30 µM | > 30 µM | > 30 µM | > 30 µM | > 30 µM | > 30 µM | > 30 µM |
| CC1(C)S[C@@H]2[C@H](NC(=O)[C@H](NC(=O)N3CCN(S(C)(=O)=O)C3=O)c3ccccc3)C(=O)N2[C@H]1C(=O)O [MEZLOCILLIN] | > 30 µM | > 30 µM | > 30 µM | > 30 µM | > 30 µM | > 30 µM | > 30 µM | > 30 µM | > 30 µM |
| CCOC(=O)[C@H](CCc1ccccc1)N[C@@H](C)C(=O)N1Cc2cc(OC)c(OC)cc2C[C@H]1C(=O)O [MOEXIPRIL] | > 30 µM | > 30 µM | > 30 µM | > 30 µM | > 30 µM | 25.4 µM | > 30 µM | > 30 µM | > 30 µM |
| CC(c1ccc(Cl)c(Cl)c1)N1N=C(N)CC1=O (configuration not stated) [MUZOLIMINE] | > 30 µM | > 30 µM | > 30 µM | > 30 µM | > 30 µM | > 30 µM | > 30 µM | > 30 µM | > 30 µM |
| CCN(CC)CCOC(=O)C(Cc1cccc2ccccc12)CC1CCCO1 (configuration not stated) [NAFRONYL] | > 30 µM | > 30 µM | > 30 µM | > 30 µM | > 30 µM | > 30 µM | > 30 µM | 28.4 µM | > 30 µM |
| C1CNCCN1 [PIPERAZINE] | > 30 µM | > 30 µM | > 30 µM | > 30 µM | > 30 µM | > 30 µM | > 30 µM | > 30 µM | > 30 µM |
| c1cc(CN2CCCNCCNCCCNCC2)ccc1CN1CCCNCCNCCCNCC1 [PLERIXAFOR] | > 30 µM | > 30 µM | > 30 µM | > 30 µM | > 30 µM | > 30 µM | > 30 µM | > 30 µM | > 30 µM |
| O=C(NC(Cc1cc(=O)[nH]c2ccccc12)C(=O)O)c1ccc(Cl)cc1 (configuration not stated) [REBAMIPIDE] | > 30 µM | > 30 µM | > 30 µM | > 30 µM | > 30 µM | > 30 µM | > 30 µM | > 30 µM | > 30 µM |
| CCCC(=O)O[C@H]1[C@H](C)O[C@@H](O[C@H]2[C@H](N(C)C)[C@@H](O)[C@H](O[C@H]3[C@@H](CC=O)C[C@@H](C)[C@@H](O)/C=C/C=C/C[C@@H](C)OC(=O)C[C@@H](O)[C@@H]3OC)O[C@@H]2C)C[C@@]1(C)OC(=O)CC [ROKITAMYCIN] | > 30 µM | > 30 µM | 8.78 µM | > 30 µM | > 30 µM | > 10 µM | > 30 µM | > 30 µM | > 30 µM |
| CCCCCCCCCCCCCCCCCC(=O)NCCCC[C@H](NC(=O)CC[C@@H](NC(=O)[C@H](C)NC(=O)[C@@H](C)O[C@H]1[C@H](O)[C@@H](CO)OC(O)[C@@H]1NC(C)=O)C(N)=O)C(=O)O (some centres not stated) [ROMURTIDE] | 2.2 µM | 13.3 µM | 5.94 µM | > 3 µM | 2.94 µM | > 30 µM | 6.21 µM | > 30 µM | > 30 µM |
| COc1cc([C@@H]2c3cc4c(cc3[C@@H](O[C@@H]3O[C@@H]5CO[C@@H](c6cccs6)O[C@H]5[C@H](O)[C@H]3O)[C@H]3COC(=O)[C@H]23)OCO4)cc(OC)c1O [TENIPOSIDE] | > 30 µM | > 30 µM | > 30 µM | > 30 µM | > 30 µM | > 3 µM | > 30 µM | > 30 µM | > 30 µM |
